Laboratory results reported in patent publication US10954287B2, “Ras binding peptides and methods of use” (Ra Pharmaceuticals, Inc., priority 2016, dated 2021).

What was measured:
[1] = Compound stability in rat plasma; type: in vitro ADME; settings: serum (method text and assay name say plasma), 37° C., pH 7.4
Procedure: Compounds were assayed for stability in mouse and rat plasma under the following conditions. Plasma was adjusted to pH 7.4. DMSO stocks at 10 mM concentration were prepared for the test compounds. Aliquots of the DMSO solutions were dosed into 1 mL of plasma, which had been pre-warmed to 37° C., at a final test compound concentration of 10 μM. The vials were kept in a benchtop Thermomixer® (Eppendorf, Hauppauge, N.Y.) for the duration of the experiment. Aliquots (100 μL) were taken at each timepoint and added to a 96-well plate that had been pre-filled with 300 μL of an acetonitrile solution containing mixture of the internal standards (metoprolol, propranalol and warfarin each at 500 ng/mL). Samples were stored at 4° C. until the end of the experiment. After the final timepoint was sampled, the plate was mixed and then centrifuged at 3,000 rpm for 10 minutes. Aliquots of the supernatant were removed and analyzed by LC-HRAMS.

[2] = molecular target: T1, SOS^cat catalyzed nucleotide exchange of H-Ras-GDP (Homo sapiens, UniProt P01112, G12V); experiment: SOS-mediated nucleotide exchange (MANT-GMPPNP fluorescence); type: biochemical; settings: 25 μM of R4000, 1 μM H-Ras-GDP, 2 μM SOS^cat
T1 construct: made in house; host or cells: E. coli BL21 (DE3)
Procedure: A sequence encoding the Ras exchanger motif and Cdc25 domains of human guanine nucleotide exchange factor SOS1 (amino acids 564-1049, designated as SOS^cat hereafter) was synthesized at GeneArt (Life Technologies, Carlsbad, Calif.) and subcloned into the pET28a expression vector (Novagen, Darmstadt, Germany) for expression in E. coli. The identity of the expression construct was confirmed by DNA sequencing. The plasmid encoding SOS^cat was transformed into BL21 (DE3). Cells were grown at 37° C. to an absorbance of 0.5 (OD600) in LB media containing 25 μg/mL of kanamycin and then transferred to 20° C. prior to induction with 0.1 mM IPTG. Cells were harvested 15 hours after induction and the pellet was lysed with B-PER Bacteria Extraction Reagent (Pierce/Thermo Scientific, Rockford, Ill.) containing EDTA-free protease inhibitors. […]
The SOS^cat protein was then dialysed into a buffer containing 25 mM Tris-HCl, pH 7.5, 150 mM NaCl, 5 mM MgCl2, and 1 mM DTT and stored at −80° C. […] Changes in fluorescence were measured by a fluorescence spectrometer (SpectraMax M3; Molecular Devices) in a black 96 half-area well plate (Corning 3686). Fluorescence was excited at λ=370 nm and emission was monitored at λ=450 nm every 20 s for over 30 minutes at 22° C. The nucleotide exchange rates were expressed as Vmax (milli-units per minute).

[3] = molecular target: T2, GST-tagged RAF-RBD and biotinylated H-Ras loaded with GMPPNP (Homo sapiens, UniProt P01112, G12V); experiment: TR-FRET of the interaction between GST-tagged RAF-RBD and biotinylated H-Ras; type: binding; settings: 12.5 nM Bio-H-Ras GMPPNP, 10 nM GST-RAF-RBD, FIG. 8C
T2 construct: made in house; host or cells: E. coli BL21 (DE3)
Procedure: The interaction between GST-tagged RAF-RBD and biotinylated H-Ras (Bio-H-Ras) loaded with GMPPNP was detected using TR-FRET. Assays were performed in 384 well plates (Proxiplate-384 plus, Perkin Elmer, Waltham, Mass.). Bio-H-Ras GMPPNP was diluted in assay buffer (50 mM Tris-HCl, pH 7.5, 5 mM MgCl2, 0.0025% Tween-80, 1 mM DTT, and 50 nM GMPPNP) at a final concentration of 12.5 nM. R4000 was serially diluted in DMSO, then diluted in assay buffer and incubated with Bio-H-Ras GMPPNP for 30 minutes at room temperature (1% DMSO final). GST-RAF-RBD was added to the assay (10 nM final) and incubated 60 minutes at room temperature. Europium cryptate conjugated-anti-GST (donor; Perkin Elmer, Waltham, Mass.) and streptavidin conjugated to SureLight-Allophycocyanin (acceptor; Perkin Elmer, Waltham, Mass.) was added to the wells at final concentrations of 1 nM and 1.25 nM, respectively. Reaction mixtures were incubated at room temperature for 2 hours then detected using an EnVision Multilabel Plate Reader (Perkin Elmer, Waltham, Mass.) with excitation at 340 nm and emission at 615 nm (donor) and 665 nm (acceptor). FRET ratios (615 emission/665 emission) were calculated per well. Data was analyzed using GraphPad Prism, and IC50 values were generated by fitting dose response data to a 4 parameter fit sigmoidal dose response curve. […]

half-life at 10 μM [1]: 2.1 h | effect on the rate of SOS catalyzed nucleotide exchange [2]: does not effect the rate of exchange | blocking of H-Ras binding to RAF [3]: does not block binding to RAF
SMILES: CCC[C@H](NC(C)=O)C(=O)N[C@H]1CSCc2cccc(c2)CSC[C@@H](C(N)=O)NC(=O)CN(C)C(=O)[C@H](Cc2ccc(F)cc2)N(C)C(=O)[C@H](Cc2ccc(O)cc2)NC(=O)[C@H](Cc2c[nH]c3ncccc23)NC(=O)[C@H](c2ccccc2)NC(=O)[C@H](C)N(C)C(=O)[C@H](Cc2cnc[nH]2)NC(=O)[C@H](CCCCN)NC(=O)[C@H](C(C)(C)C)NC(=O)[C@H](Cc2ccc(O)cc2)NC1=O (relative stereo) [Compound R4000, ACE-NVA-CYS*-TYR-TBG-LYS-HIS-NMA-PHG-7AW-TYR-MFF-SAR-CYS*-NH2]
